Reference: US10654832B2, “3-(benzoimidazol-2-YL)-indazole inhibitors of the Wnt signaling pathway and therapeutic uses thereof” (Samumed, LLC, priority 2013, dated 2020)

System: Wnt activity (wnt-responsive SP5 promoter luciferase reporter in SW480 cells)
Experiment: Wnt activity reporter assay (SP5 promoter-firefly luciferase in SW480 cells)
Type: cell-based
Conditions: Homo sapiens; SW480 colon cancer cells with SP5 promoter luciferase reporter; 24 h after compound addition; half-log dilutions, three micromolar top concentration; normalized to DMSO; read-out: Wnt inhibition
Summary of the method: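 SW480 cells (APC-mutant) stably carried a lentiviral SP5-promoter (eight TCF/LEF sites) firefly luciferase reporter. Signals were normalized to DMSO-only cells to derive IC50.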

| Compound | IC50 [nM] |
| --- | --- |
| CN(C)c1cncc(-c2ccc3[nH]nc(-c4nc5c(N6CCCCC6)cccc5[nH]4)c3c2)c1 [Compound 151, N,N-Dimethyl-5-(3-(4-(piperidin-1-yl)-1H-benzo[d]imidazol-2-yl)-1H-indazol-5-yl)pyridin-3-amine] | 41 |
| CN1CCN(c2cccc3[nH]c(-c4n[nH]c5ccc(-c6cncc(NC(=O)C7CCCC7)c6)cc45)nc23)CC1 [Compound 213, N-(5-(3-(4-(4-Methylpiperazin-1-yl)-1H-benzo[d]imidazol-2-yl)-1H-indazol-5-yl)pyridin-3-yl)cyclopentanecarboxamide] | 195 |
| CN(C)Cc1cncc(-c2ccc3[nH]nc(-c4nc5c(-c6ccsc6)cccc5[nH]4)c3c2)c1 [Compound 253, N,N-Dimethyl-1-(5-(3-(4-(thiophen-3-yl)-1H-benzo[d]imidazol-2-yl)-1H-indazol-5-yl)pyridin-3-yl)methanamine] | 7 |
| c1cc(-c2ccoc2)c2nc(-c3n[nH]c4ccc(-c5cncc(CN6CCCCC6)c5)cc34)[nH]c2c1 [Compound 279, 3-(4-(Furan-3-yl)-1H-benzo[d]imidazol-2-yl)-5-(5-(piperidin-1-ylmethyl)pyridin-3-yl)-1H-indazole] | 418 |
| Cc1ccncc1-c1ccc2[nH]nc(-c3nc4ccccc4[nH]3)c2c1 [Compound 221, 3-(1H-Benzo[d]imidazol-2-yl)-5-(4-methylpyridin-3-yl)-1H-indazole] | 317 |
| CCNCc1cncc(-c2ccc3[nH]nc(-c4nc5ccccc5[nH]4)c3c2)c1 [Compound 222] | 235 |
| CCCCC(=O)Nc1cncc(-c2ccc3[nH]nc(-c4nc5c(N6CCCCC6)cccc5[nH]4)c3c2)c1 [Compound 162, N-(5-(3-(4-(Piperidin-1-yl)-1H-benzo[d]imidazol-2-yl)-1H-indazol-5-yl)pyridin-3-yl)pentanamide] | 140 |
| Cc1cn(-c2cccc3[nH]c(-c4n[nH]c5ccc(-c6cnccc6C)cc45)nc23)cn1 [Compound 173] | 46 |
| O=C(Cc1ccccc1)Nc1cncc(-c2ccc3[nH]nc(-c4nc5c(-c6ccncc6)cccc5[nH]4)c3c2)c1 [Compound 106, 2-Phenyl-N-(5-(3-(4-(pyridin-4-yl)-1H-benzo[d]imidazol-2-yl)-1H-indazol-5-yl)pyridin-3-yl)acetamide] | 1930 |
| CC(C)(C)C(=O)Nc1cncc(-c2ccc3[nH]nc(-c4nc5c(-c6ccc(F)cc6)cccc5[nH]4)c3c2)c1 [Compound 32, N-(5-(3-(4-(4-Fluorophenyl)-1H-benzo[d]imidazol-2-yl)-1H-indazol-5-yl)pyridin-3-yl)pivalamide] | 35 |
| CC(C)(C)CC(=O)Nc1cncc(-c2ccc3[nH]nc(-c4nc5c(-c6cccc(F)c6)cccc5[nH]4)c3c2)c1 [Compound 16, N-(5-(3-(4-(3-Fluorophenyl)-1H-benzo[d]imidazol-2-yl)-1H-indazol-5-yl)pyridin-3-yl)-3,3-dimethylbutanamide] | 31 |
| c1cc(N2CCCCC2)c2nc(-c3n[nH]c4ccc(-c5cncc(CN6CCCC6)c5)cc34)[nH]c2c1 [Compound 158, 3-(4-(Piperidin-1-yl)-1H-benzo[d]imidazol-2-yl)-5-(5-(pyrrolidin-1-ylmethyl)pyridin-3-yl)-1H-indazole] | 116 |
| O=C(Nc1cncc(-c2ccc3[nH]nc(-c4nc5c(-c6ccc(F)cc6)cccc5[nH]4)c3c2)c1)C1CCC1 [Compound 44, N-(5-(3-(4-(4-Fluorophenyl)-1H-benzo[d]imidazol-2-yl)-1H-indazol-5-yl)pyridin-3-yl)cyclobutanecarboxamide] | 140 |
| O=C(Nc1cncc(-c2ccc3[nH]nc(-c4nc5c(-c6ccc(F)cc6)cccc5[nH]4)c3c2)c1)C1CCCCC1 [Compound 46, N-(5-(3-(4-(4-Fluorophenyl)-1H-benzo[d]imidazol-2-yl)-1H-indazol-5-yl)pyridin-3-yl)cyclohexanecarboxamide] | 225 |
| CN(C)c1cncc(-c2ccc3[nH]nc(-c4nc5c(-c6cccnc6)cccc5[nH]4)c3c2)c1 [Compound 79, N,N-Dimethyl-5-(3-(4-(pyridin-3-yl)-1H-benzo[d]imidazol-2-yl)-1H-indazol-5-yl)pyridin-3-amine] | 45 |
| CCCCC(=O)Nc1cncc(-c2ccc3[nH]nc(-c4nc5c(-c6ccncc6)cccc5[nH]4)c3c2)c1 [Compound 114, N-(5-(3-(4-(Pyridin-4-yl)-1H-benzo[d]imidazol-2-yl)-1H-indazol-5-yl)pyridin-3-yl)pentanamide] | 67 |
| CCNCc1cncc(-c2ccc3[nH]nc(-c4nc5c(-c6ccsc6)cccc5[nH]4)c3c2)c1 [Compound 246, N-((5-(3-(4-(Thiophen-3-yl)-1H-benzo[d]imidazol-2-yl)-1H-indazol-5-yl)pyridin-3-yl)methyl)ethanamine] | 14 |
